Source: publication PMC12655351, “Synthesis and Anticancer Activity Evaluation of New 5-((5-Nitrofuran-2-yl)allylidene)-2-thioxo-4-thiazolidinones” (Pharmaceuticals, 2025)
Where a name gives a salt, the structure may show the parent alone. Read-outs that look alike come from different tables or passages of the source.

Assays:
AGS = assay: MTT assay; format: cell-based; conditions: Homo sapiens, 24 h of treatment
Method: (§1) The NCI-60 screening protocol utilizes the sulforhodamine B (SRB) assay following 48 h of compound exposure. […] The MTT assay was performed on eleven cancer cell lines: human breast cancer (MDA-MB-231, MCF-7, HCC 1954), human gastric cancer (AGS), human colorectal adenocarcinoma (HT-29, DLD-1, HCT 116), human neuroblastoma (SH SY5Y), and human leukemia (JURKAT, RMPI 8866, K-562) cell lines. The study was conducted in triplicate at the following seven concentrations: 0.62, 1.25, 2.5, 5, 10, 20, and 40 μM.
(§2) The selected cell lines were seeded into 96-well plates and cultured in accordance with the previously described methodology. Then, the cells were treated with all tested compounds and DOX at concentrations of 0.625, 1.25, 2.5, 5.0, 10.0, 20.0, and 40.0 μM for 24 h. A solution of 3-(4,5-dimethyl-2-thiazolyl)-2,5-diphenyl-2H-tetrazolium bromide (Sigma-Aldrich, St. Louis, MO, USA) in phosphate-buffered saline without calcium and magnesium (Corning, Kennebunk, ME, USA) at a concentration of 5 mg/mL was used to carry out MTT assay. After incubation, 20 μL of the prepared MTT solution was added, and then the cells were incubated at 37 °C for two hours. Afterwards, the cells were lysed using 100 μL of lysing buffer (comprising 25 mM HCl, 2% acetic acid, 3% DMF, and 5% SDS, with a pH of 4.7). The absorbance was determined at a wavelength of 570 nm using an Absorbance 96 microplate reader (Byonoy GmbH, Hamburg, Germany).

DLD-1 = assay: MTT assay; format: cell-based; conditions: Homo sapiens; DLD-1, 24 h of treatment
Method: as §1, §2

HCC-1954 = assay: MTT assay; format: cell-based; conditions: Homo sapiens, HCC1954; HCC-1954, 24 h of treatment
Method: as §1, §2

HCT-116 = assay: MTT assay; format: cell-based; conditions: Homo sapiens; HCT-116, 24 h of treatment
Method: as §1, §2

HT-29 = assay: MTT assay; format: cell-based; conditions: Homo sapiens; HT-29, 24 h of treatment
Method: as §1, §2

Jurkat = assay: MTT assay; format: cell-based; conditions: Homo sapiens, 24 h of treatment
Method: as §1, §2

K562 = assay: MTT assay; format: cell-based; conditions: Homo sapiens; K562, 24 h of treatment
Method: as §1, §2

MCF-7 [1] = assay: MTT assay; format: cell-based; conditions: Homo sapiens, MCF7; MCF-7, 24 h of treatment
Method: as §1, §2

MDA-MB-231 [2] = assay: MTT assay; format: cell-based; conditions: Homo sapiens; MDA-MB-231, 24 h of treatment
Method: as §1, §2

RPMI 8866 = assay: MTT assay; format: cell-based; conditions: Homo sapiens; RPMI 8866, 24 h of treatment
Method: as §1, §2

SH SY5Y = assay: MTT assay; format: cell-based; conditions: Homo sapiens, 24 h of treatment
Method: as §1, §2

MCF-7 [3] = assay: [3H]-thymidine incorporation assay; format: cell-based; conditions: Homo sapiens, MCF7; MCF-7, 24 h of treatment
Method: (§3) Another method of assessing the cytotoxic effects of tested compounds, [^3H]-thymidine incorporation assay, was applied. This method provided the capability to analyze the antiproliferative activity of novel structures on MCF-7 and MDA-MB-231 through their ability to incorporate thymidine into the cells. The acquired results further confirmed the potent activity of the 14b compound as the most prominent structure among the novel compounds (Table 2). The test was carried out in triplicate at concentrations of 5, 15, and 30 μM for the MDA-MB-231 cell line and 1, 5, and 10 μM for the MCF-7 cell line.
(§4) Following the selection of cell lines for further study, the effects of all compounds on cell proliferation were evaluated on MCF-7 and MDA-MB-231 cell lines. Cells were seeded in 24-well plates and cultured as described above. Cells were treated with the compounds at concentrations 1, 5, and 10 μM, and 5, 15, and 30 μM for MCF-7 and MDA-MB-231 cell lines, respectively, for 24 h. Subsequently, 0.5 μCi [^3H]-thymidine was added for 4 h at 37 °C. Then, plates with cells were placed on the ice, the liquid was aspirated, and cells were washed twice with 1mL of 0.05 M Tris-HCl buffer comprising 0.11 M NaCl and precipitated by adding 1 mL per well of 5% trichloroacetic. After precipitation, the cells were dissolved with 1 mL of 0.1 M NaOH with 1% SDS (Sigma-Aldrich, St. Louis, MO, USA) at room temperature (RT). The cell lysates were transferred into scintillation vials containing 2 mL of scintillation fluid (Ultima Gold™ XR, PerkinElmer, MA, USA), and cell-associated radioactivity was measured using a Scintillation Counter 1900 TR, TRI-CARB (Packard, Perkin Elmer, Inc., San Jose, CA, USA). The [^3H]-thymidine uptake was expressed as a percentage of the control value.

MDA-MB-231 [4] = assay: [3H]-thymidine incorporation assay; format: cell-based; conditions: Homo sapiens; MDA-MB-231, 24 h of treatment
Method: as §3, §4

MCF-7 [5] = conditions: cited from earlier work
MDA-MB-231 [6] = conditions: cited from earlier work
[7] = test system: reactive oxygen species in MCF-7 cells; assay: H2DCFDA and DAPI double staining; format: cell-based, human; conditions: MCF-7, 1 and 5 μM, one hour
Method: (§5) The double staining method was applied to analyze novel compounds’ effects on the generation of reactive oxygen species. The first dye, H2DCFDA, after conversion to DCF, serves as an indicator of oxidative stress (green fluorescence), while the second one, known as DAPI, was applied to showcase nuclear genetic material of MCF-7 and MDA-MB-231 breast cancer cells (blue fluorescence). The concentrations of compounds were 1 and 5 μM for the MCF-7 cell line and 5 and 10 μM for the MDA-MB-231 cell line. The incubation time after treatment was one hour in both cell lines.
(§6) The influences of 2b, 12b, 14b, and doxorubicin (1 and 5 µM and 5 and 10 µM for MCF-7 and MDA-MB-231 cell lines, respectively) on the generation of reactive oxygen species (ROS) were analyzed. Cells were seeded in 6-well culture plates at 1 × 10^5 cells per well in 1 mL of medium and then treated with compounds for 1 h and then washed with PBS. Double staining was conducted with 20 µM 2′,7′-dichlorodihydrofluorescein diacetate (H2DCFDA) reagent (Thermo Fisher Scientific, Eugene, OR, USA), which is colorless, and is cleaved by intracellular esterases and oxidized to the highly fluorescent 2′,7′-dichlorofluorescein (DCF), and 10 µg/mL of the fluorescent dye 4′,6-diamidino-2-phenylindole (DAPI) (Sigma-Aldrich, St. Louis, MO, USA), which visualizes the nuclear DNA of cells. A Nikon ECLIPSE Ti fluorescence microscope (Nikon, Tokyo, Japan) was used to obtain results which were analyzed using ImageJ software 1.54k (Bethesda, MD, USA). The fluorescence intensity of the DCF reagent was evaluated relative to the control. The number of analyzed cells was above 100.

[8] = test system: reactive oxygen species in MDA-MB-231 cells; assay: H2DCFDA and DAPI double staining; format: cell-based, human; conditions: MDA-MB-231, 5 and 10 μM, one hour
Method: as §5, §6

IC50 (AGS)	IC50 (DLD-1)	IC50 (HCC-1954)	IC50 (HCT-116)	IC50 (HT-29)	IC50 (Jurkat)	IC50 (K562)	IC50 (MCF-7 [1])	IC50 (MDA-MB-231 [2])	IC50 (MCF-7 [3])	IC50 (MDA-MB-231 [4])	SMILES	IC50 (RPMI 8866)	IC50 (SH SY5Y)	IC50 (MCF-7 [5]; MCF-7 ref 4, read-out: IC50)	IC50 (MDA-MB-231 [6]; MDA-MB-231 ref 4, read-out: IC50)	generation of reactive oxygen species [7]	generation of reactive oxygen species [8]	IC50 (MCF-7 [5]; MCF-7 ref 39, read-out: concentration required to inhibit more than 50%)	IC50 (MDA-MB-231 [6]; MDA-MB-231 ref 39, read-out: concentration required to inhibit more than 50%)
3.38 µM	3.68 µM	4.9 µM	4.15 µM	8.04 µM	3.19 µM	7.35 µM	2.38 µM	8.34 µM	2.21 µM	1.84 µM	CCC(C)C(C(=O)O)N1C(=O)/C(=C/C=C/c2ccc([N+](=O)[O-])o2)SC1=S (centres unmarked) [8b, 3-Methyl-2-((Z)-5-((E)-3-(5-nitrofuran-2-yl)allylidene)-4-oxo-2-thioxothiazolidin-3-yl)pentanoic acid]	14.2 µM	6.6 µM	–	–	–	–	–	–
6.53 µM	8.03 µM	17.6 µM	14.7 µM	30.4 µM	14.2 µM	25.8 µM	7.74 µM	18.5 µM	7.79 µM	2.65 µM	CCC(C(=O)O)N1C(=O)/C(=C/C=C/c2ccc([N+](=O)[O-])o2)SC1=S (centres unmarked) [3b, 2-((Z)-5-((E)-3-(5-Nitrofuran-2-yl)allylidene)-4-oxo-2-thioxothiazolidin-3-yl)butanoic acid]	35.2 µM	28.5 µM	–	–	–	–	–	–
–	–	–	–	–	–	–	–	–	–	–	CC(C)C(C(=O)O)N1C(=O)/C(=C/C(Cl)=C/c2ccc([N+](=O)[O-])cc2)SC1=S (centres unmarked) [substructure B, 2-{5-[(Z,2Z)-2-Chloro-3-(4-nitrophenyl)-2-propenylidene]-4-oxo-2-thioxothiazolidin-3-yl}-3-methylbutanoic Acid]	–	–	5.02 µM	15.2 µM	–	–	–	–
8.57 µM	9.29 µM	19.1 µM	13.5 µM	28.6 µM	6.7 µM	25.5 µM	9.23 µM	22.9 µM	7.87 µM	5.99 µM	O=C(O)C(Cc1ccccc1)N1C(=O)/C(=C/C=C/c2ccc([N+](=O)[O-])o2)SC1=S (centres unmarked) [10b, 2-((Z)-5-((E)-3-(5-Nitrofuran-2-yl)allylidene)-4-oxo-2-thioxothiazolidin-3-yl)-3-phenylpropanoic acid]	16.5 µM	18.9 µM	–	–	–	–	–	–
1.09 µM	2.83 µM	3.14 µM	16.8 µM	0.73 µM	0.72 µM	0.43 µM	0.73 µM	7.53 µM	1.78 µM	0.36 µM	COc1cccc2c1C(=O)c1c(O)c3c(c(O)c1C2=O)C[C@@](O)(C(=O)CO)C[C@@H]3O[C@H]1C[C@H](N)[C@H](O)[C@H](C)O1 [DOX, Doxorubicin hydrochloride, reference compound]	0.38 µM	39.9 µM	–	–	fewer effects on reactive oxygen species generation	fewer effects on reactive oxygen species generation	–	–
5.55 µM	7.67 µM	6.28 µM	7.98 µM	13.6 µM	7.72 µM	18.5 µM	7.13 µM	16.7 µM	6.69 µM	2.19 µM	CC(C)CC(C(=O)O)N1C(=O)/C(=C/C=C/c2ccc([N+](=O)[O-])o2)SC1=S (centres unmarked) [7b, 4-Methyl-2-((Z)-5-((E)-3-(5-nitrofuran-2-yl)allylidene)-4-oxo-2-thioxothiazolidin-3-yl)pentanoic acid]	16.8 µM	15.6 µM	–	–	–	–	–	–
–	–	–	–	–	–	–	–	–	–	–	N.N.[Cl][Pt][Cl] [cisplatin]	–	–	–	–	–	–	~80 µM	~80 µM
1.71 µM	1.76 µM	6.23 µM	10.5 µM	9.61 µM	1.41 µM	15.5 µM	4.05 µM	> 40 µM	3.13 µM	> 30 µM	O=C(O)CCCCCCCCCCN1C(=O)/C(=C/C=C/c2ccc([N+](=O)[O-])o2)SC1=S [15b, 11-((Z)-5-((E)-3-(5-nitrofuran-2-yl)allylidene)-4-oxo-2-thioxothiazolidin-3-yl)undecanoic acid]	11 µM	3.76 µM	–	–	–	–	–	–
36.2 µM	28.8 µM	25.3 µM	> 40 µM	22.3 µM	1.76 µM	> 40 µM	> 40 µM	> 40 µM	> 10 µM	> 30 µM	O=C(O)CN1C(=O)/C(=C/C=C/c2ccc([N+](=O)[O-])o2)SC1=S [1b, 2-((Z)-5-((E)-3-(5-Nitrofuran-2-yl)allylidene)-4-oxo-2-thioxothiazolidin-3-yl)acetic acid]	> 40 µM	> 40 µM	–	–	–	–	–	–
30.6 µM	20.3 µM	> 40 µM	36.1 µM	> 40 µM	17.1 µM	> 40 µM	33.1 µM	> 40 µM	> 10 µM	> 30 µM	O=C(O)C(Cc1ccc(O)cc1)N1C(=O)/C(=C/C=C/c2ccc([N+](=O)[O-])o2)SC1=S (centres unmarked) [11b, 3-(4-Hydroxyphenyl)-2-((Z)-5-((E)-3-(5-nitrofuran-2-yl)allylidene)-4-oxo-2-thioxothiazolidin-3-yl)propanoic acid]	27.8 µM	> 40 µM	–	–	–	–	–	–
